Experimental data taken from patent publication US20140121235A1, “Method for Treating S6K-Overexpressing Cancers” (Rush University Medical Center, priority 2012, published 2014).
Entries after “also recorded” stand apart in the source; their conditions may differ.

Key:
Assay type in all cases: cell-based
Raf-1 phosphorylation = experiment: Western blot of Raf-1 phosphorylation in A375 cells
Experimental: (§1) A375 cells seeded in a 6-well plate were starved in DMEM medium containing 0.5% FBS for 2 hr and treated with the indicated concentration of A77 1726 or PLX 4720 (1 μM) for another 2 hr (A) or treated with A77 1726 (100 μM) for the indicated time (B & C). Cells were harvested and analyzed for protein phosphorylation by specific antibodies as indicated. Protein loading was monitored by stripping membrane and re-probing with antibodies against non-phosphorylated proteins. (D) Uridine fails to reverse the effect of A77 1726 on the PI-3 and MAP kinase pathways. A375 cells seeded in a 6-well plate were starved in DMEM medium containing 05% FBS for 2 hr and treated with the indicated concentration of A77 1726 in the absence or presence of uridine (200 μM). Phosphorylated and total proteins were analyzed by Western blot as described above.
Cells grown in 6-well plates were harvested and lysed in NP-40 lysis buffer (50 mM Tris-HCI (pH 8.0), 150 mM NaCl, 1% NP-40, 5 mM EDTA, 10 μg/ml aprotinin, 10 μg/ml leupeptin, and 1 mM phenylmethylsulfonyl fluoride). After incubation on ice for 30 min, the cell lysates were prepared by spinning down at 4° C., 15,000 rpm for 15 min. […]

[1] = system: ERK1/2^T202/Y204 and MEK1/2^S217/S221 phosphorylation; experiment: Western blot of MAP kinase pathway phosphorylation in A375 cells; conditions: A375 cells starved in 0.5% FBS; A77 1726 or leflunomide at indicated concentrations, 2 hr
Experimental: as §1, with “(D) Uridine fails to reverse the effect of A77 1726 on the PI-3 and MAP kinase pathways.” left out
A375 cells seeded in 6-well plates were starved in DMEM medium containing 0.5% FBS for 2 hr and then pre-treated with vehicle (0.1% dimethyl sulfoxide), LY294002 (10 μM) (A), PPP (1 μM) (B), or the inhibitors of the MAP kinase pathway (PLX4720, 1 μM; U0126, 10 μM; PD98059, 10 μM) (C) for 1 hr. Cells were then treated with A77 1726 (100 μM) or rapamycin (20 nM) as indicated for 2 hr. Cells were harvested and analyzed for protein phosphorylation by specific antibodies as indicated. Protein loading was monitored by stripping membrane and re-probing with antibodies against non-phosphorylated proteins.
Cells grown in 6-well plates were harvested and lysed in NP-40 lysis buffer (50 mM Tris-HCI (pH 8.0), 150 mM NaCl, 1% NP-40, 5 mM EDTA, 10 μg/ml aprotinin, 10 μg/ml leupeptin, and 1 mM phenylmethylsulfonyl fluoride). After incubation on ice for 30 min, the cell lysates were prepared by spinning down at 4° C., 15,000 rpm for 15 min. After electrophoresis and transfer to Immobolin membrane, proteins of interest were probed with their specific antibodies, followed by horseradish peroxidase-conjugated goat anti-rabbit IgG and SuperSignal Western Pico enhanced chemiluminoscence substrate (Pierce Chemical Co., Rockford, Ill.).
The PI-3 and MAP kinase pathways play an important role in cell proliferation, differentiation, and cell cycle progress. Multiple genes in these two pathways are frequently mutated and have a commanding role in driving tumorigenesis and tumor cell proliferation (2; 3). […] Here we tested whether A77 1726 affected the activation of MAP and PI-3 kinase pathways. A375 cells grown in 6-well plates were starved in the media containing 0.5% FBS for 2 hr and then treated with the indicated concentration of A77 1726. […] We next explored the effect of A77 1726 in phosphorylation of the molecules in the PI-3 kinase pathway.

BT-20 cells = experiment: Western blot of protein phosphorylation in BT-20 cells
Experimental: (A) A77 1726 induces MAP kinase activation in A375 cells cultured in 10% fetal bovine serum. A375 cells were seeded in a 6-well plate overnight and then stimulated with various concentrations of A77 1726 or PLX 4720 (1 μM) for 2 hr. Cells were harvested and analyzed for MAP kinase activation by anti-phospho-ERK1/2 antibody. The membrane was stripped and re-probed with anti-ERK1/2 antibody. (B) Lack of the feedback activation of the MAP and PI-3 kinase pathways in BT-20 cells. BT20 cells seeded in 6-well plates were starved in DMEM medium containing 05% EBS for 2 hr and treated with A77 1726 (0, 50 or 100 μM), Cells were harvested and analyzed for protein phosphorylation by specific antibodies as indicated. Protein loading was monitored by stripping membrane and re-probing with antibodies against non-phosphorylated proteins. (C) Strong feedback activation of the PI-3 kinase pathway and weak feedback activation of the MAP kinase pathway in MCF-7 cells by A77 1726 and rapamycin. […] Cells were harvested and analyzed for protein phosphorylation with the indicated antibodies. […] Cells were harvested and analyzed for protein phosphorylation by specific antibodies as indicated. Protein loading was monitored by stripping membrane and re-probing with antibodies against nonphosphorylated proteins. […]

C/C(O)=C(\C#N)C(=O)Nc1ccc(C(F)(F)F)cc1 [A77 1726]
effect on Raf-1 phosphorylation (Raf-1 phosphorylation): no increased Raf-1 phosphorylation; also recorded: had no effect
effect on ERK1/2 and MEK phosphorylation [1]: rapidly and potently induced; also recorded: strongly induced
effect on ERK phosphorylation (BT-20 cells): had no effect
effect on S6^S235/236 phosphorylation (BT-20 cells): Inhibition
